Assay results published in patent US4260745A, “3-Halo cephalosporins” (Eli Lilly and Company, priority 1979, dated 1981).
Values after ≈ are worked out from the molar mass of the structure shown. Where a name gives a salt, the structure may show the parent alone. Read-outs that look alike come from different tables or passages of the source.

Legend:
Electrometric titration = type: physicochemical; details: 66% aqueous dmf, read-out: pKa
[1] = test system: Methicillin resistant Staphylococcus; test: Gradient Plate technique, MIC; type: cell-based; details: Clinical Isolate X400 (methicillin resistant)
Shigella sp. = test: Gradient Plate technique, MIC; type: cell-based; details: read-out: Minimum Inhibitory Concentration
From the text: (§1) The following Table II lists the minimum inhibitory concentration (MIC) for 7-[2-(2-thienyl)acetamido]-3-chloro-3-cephem-4-carboxylic acid against penicillin resistant Staphylococcus both in the presence of and absence of serum. The MIC values were obtained by the Gradient Plate technique carried out essentially as described by Bryson and Szybalski, Science, 116, 45 (1952).
(§2) In Table III, below, the MIC values for the test compound of Tables I and II against representative gram-negative organisms is presented. The data were obtained by the Gradient Plate technique.
(§3) The minimum inhibitory concentrations for 7-[2-(2-thienyl)acetamido]-3-bromo-3-cephem-4-carboxylic acid against representative gram-negative bacteria is presented in Table VI. The data were obtained by the Gradient Plate Method.
(§4) Tables VII and VIII list the minimum inhibitory concentrations of the test compound effective against representative penicillin resistant Staphylococcus strains, while […] the MIC values obtained against representative gram-negative microorganisms. The data were obtained by the Gradient Plate method.

Aerobacter aerogenes = test: Gradient Plate technique, MIC; type: cell-based; details: Klebsiella aerogenes, read-out: Minimum Inhibitory Concentration
From the text: as §1, §2, §3, §4

Escherichia coli = test: Gradient Plate technique, MIC; type: cell-based; details: read-out: Minimum Inhibitory Concentration
From the text: as §1, §2, §3, §4

Klebsiella pneumoniae = test: Gradient Plate technique, MIC; type: cell-based; details: read-out: Minimum Inhibitory Concentration
From the text: as §1, §2, §3, §4

Pseudomonas aeruginosa = test: Gradient Plate technique, MIC; type: cell-based; details: read-out: Minimum Inhibitory Concentration
From the text: as §1, §2, §3, §4

Salmonella heidelberg = test: Gradient Plate technique, MIC; type: cell-based; details: Salmonella enterica, read-out: Minimum Inhibitory Concentration
From the text: as §1, §2, §3, §4

Serratia marcescens = test: Gradient Plate technique, MIC; type: cell-based; details: read-out: Minimum Inhibitory Concentration
From the text: as §1, §2, §3, §4

[2] = test system: Penicillin Resistant Staphylococcus; test: Gradient Plate technique, MIC; type: cell-based; details: read-out: Minimum Inhibitory Concentration
From the text: as §1, with “(1952). […]” for “(1952).”

[3] = test system: Staphylococcus aureus 3055; test: standard agar dilution method, MIC; type: cell-based; details: read-out: Minimum Inhibitory Concentration
From the text: (§5) In Table IX which follows, the MIC values against a spectrum of microorganisms obtained with the test compound are presented. The test method was the standard agar dilution method.

Citrobacter freundii = test: standard agar dilution method, MIC; type: cell-based; details: read-out: Minimum Inhibitory Concentration
From the text: as §5

[4] = test system: Trichophyton mentagrophytes 27; test: standard agar dilution method, MIC; type: cell-based; details: read-out: Minimum Inhibitory Concentration
From the text: as §5

[5] = test system: Pseudomonas aeruginosa X239; test: standard agar dilution method, MIC; type: cell-based; details: read-out: Minimum Inhibitory Concentration
From the text: as §5

[6] = test system: Bordetella bronchiseptica 16; test: standard agar dilution method, MIC; type: cell-based; details: read-out: Minimum Inhibitory Concentration
From the text: as §5

[7] = test system: Enterobacter aerogenes EB17; test: standard agar dilution method, MIC; type: cell-based; details: Klebsiella aerogenes, read-out: Minimum Inhibitory Concentration
From the text: as §5

Candida tropicalis A17 = test: standard agar dilution method, MIC; type: cell-based; details: read-out: Minimum Inhibitory Concentration
From the text: as §5

[8] = test system: Streptococcus faecalis X66; test: standard agar dilution method, MIC; type: cell-based; details: Enterococcus faecalis, read-out: Minimum Inhibitory Concentration
From the text: as §5

[9] = test system: Klebsiella pneumoniae KL14; test: standard agar dilution method, MIC; type: cell-based; details: read-out: Minimum Inhibitory Concentration
From the text: as §5

Proteus morganii PR15 = test: standard agar dilution method, MIC; type: cell-based; details: Morganella morganii, read-out: Minimum Inhibitory Concentration
From the text: as §5

[10] = test system: Pseudomonas solanacearcum X185; test: standard agar dilution method, MIC; type: cell-based; details: read-out: Minimum Inhibitory Concentration
From the text: as §5

Serratia marcescens SE3 = test: standard agar dilution method, MIC; type: cell-based; details: read-out: Minimum Inhibitory Concentration
From the text: as §5

[11] = test system: Staphylococcus aureus 3074; test: standard agar dilution method, MIC; type: cell-based; details: read-out: Minimum Inhibitory Concentration
From the text: as §5

Erwinia amylovora = test: standard agar dilution method, MIC; type: cell-based; details: read-out: Minimum Inhibitory Concentration
From the text: as §5

Aspergillus flavus E = test: standard agar dilution method, MIC; type: cell-based; details: read-out: Minimum Inhibitory Concentration
From the text: as §5

Salmonella typhosa SA12 = test: standard agar dilution method, MIC; type: cell-based; details: Salmonella enterica, read-out: Minimum Inhibitory Concentration
From the text: as §5

Salmonella typhimurium = test: standard agar dilution method, MIC; type: cell-based; details: Salmonella enterica, read-out: Minimum Inhibitory Concentration
From the text: as §5

Ceratocystis ulmi = test: standard agar dilution method, MIC; type: cell-based; details: read-out: Minimum Inhibitory Concentration
From the text: as §5

Escherichia coli EC14 = test: standard agar dilution method, MIC; type: cell-based; details: read-out: Minimum Inhibitory Concentration
From the text: as §5

NC1C(=O)N2C(C(=O)OCc3ccc([N+](=O)[O-])cc3)=C(O)CS[C@H]12 (stereo partly drawn) [Example 5, p-Nitrobenzyl 7-amino-3-hydroxy-3-cephem-4-carboxylate hydrochloride]
pKa (Electrometric titration; 66% DMF, second pKa): 6.3 | pKa (Electrometric titration; only or first pKa): 4

O=CO[C@@H](C(=O)NC1C(=O)N2C(C(=O)O)=C(Cl)CSC12)c1ccccc1 (stereo partly drawn) [7-[O-(Formyl)-D-mandelamido]-3-chloro-3-cephem-4-carboxylic acid]
Minimum Inhibitory Concentration ([1]; Serum): > 20 µg/mL | MIC ([1]; Staphylococcus, No Serum, read-out: Minimum Inhibitory Concentration): > 20 µg/mL | MIC (Shigella sp.): 4 µg/mL (≈ 10.1 µM) | MIC (Aerobacter aerogenes): 0.7 µg/mL (≈ 1.76 µM) | MIC (Escherichia coli): 6.3 µg/mL (≈ 15.9 µM) | MIC (Klebsiella pneumoniae): 1 µg/mL (≈ 2.52 µM) | MIC (Pseudomonas aeruginosa): > 200 µg/mL | MIC (Salmonella heidelberg): 0.6 µg/mL (≈ 1.51 µM) | MIC (Serratia marcescens): 160 µg/mL (≈ 403 µM) | pKa (Electrometric titration; only or first pKa): 4.5 | MIC ([2]; Clinical Isolate V 32, No Serum): 8 µg/mL (≈ 20.2 µM) | MIC ([2]; Clinical Isolate V 32, Serum): > 20 µg/mL | MIC ([2]; Clinical Isolate V 41, No Serum): 5.8 µg/mL (≈ 14.6 µM) | MIC ([2]; Clinical Isolate V 41, Serum): > 20 µg/mL | MIC ([2]; Clinical Isolate V 84, No Serum): 0.4 µg/mL (≈ 1.01 µM) | MIC ([2]; Clinical Isolate V 84, Serum): 1 µg/mL (≈ 2.52 µM) | MIC ([2]; Clinical Isolate X 1.1, No Serum): < 0.1 µg/mL | MIC ([2]; Clinical Isolate X 1.1, Serum): < 0.1 µg/mL | MIC [3]: > 0.25 µg/mL | MIC (Citrobacter freundii): > 128 µg/mL | MIC [4]: > 128 µg/mL | MIC [5]: 128 µg/mL (≈ 323 µM) | MIC [6]: 64 µg/mL (≈ 161 µM) | MIC [7]: 128 µg/mL (≈ 323 µM) | MIC (Candida tropicalis A17): > 128 µg/mL | MIC [8]: 64 µg/mL (≈ 161 µM) | MIC [9]: 4 µg/mL (≈ 10.1 µM) | MIC (Proteus morganii PR15): 4 µg/mL (≈ 10.1 µM) | MIC [10]: 128 µg/mL (≈ 323 µM) | MIC (Serratia marcescens SE3): > 128 µg/mL | MIC [11]: 1 µg/mL (≈ 2.52 µM) | MIC (Erwinia amylovora): > 128 µg/mL | MIC (Aspergillus flavus E): > 128 µg/mL | MIC (Salmonella typhosa SA12): 0.5 µg/mL (≈ 1.26 µM) | MIC (Salmonella typhimurium): 1 µg/mL (≈ 2.52 µM) | MIC (Ceratocystis ulmi): > 128 µg/mL | MIC (Escherichia coli EC14): 8 µg/mL (≈ 20.2 µM)
